# Source: patent publication US20240092835A1, “NOVEL PEPTIDES CAPABLE OF ALTERING NK CELL ACTIVITY” (Massachusetts Institute of Technology, priority 2022, published 2024)
# Where no end group is shown, it is not given here.
# Columns and labels:
# NKG2A−/NKG2C− NK cells = assay: NK cell activation markers in control NKG2A-/NKG2C- NK cells incubated with peptide and K562 expressing HLA-E; assay type: cell-based, human
# Method in brief: (§1)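 HLA-E-expressing K562 cells incubated with peptides from human or human cytomegalovirus proteomes, then with NK cell subsets sorted by NKG2A/NKG2C status. Read-out is percent of cells positive for surface markers; a rise indicates activation, a fall inhibition.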
# NKG2A−/NKG2C+ NK cells [1] = assay: NKG2A-/NKG2C+ NK cell activation with peptide and RMA-S cells expressing HLA-E; assay type: cell-based; settings: RMA-S cells expressing HLA-E, NKG2A−/NKG2C+ NK cells
# Protocol: An antigen processing-defective lymphoma cell line (RMA-S), with a low-level expression of HLA-E, were incubated with the novel peptides to determine the inhibitory strength on NKG2A−/NKG2C+NK cells relative to positive control sequences with differential effects ([…] (SEQ ID NO: 19)/VMAPRTLFL (SEQ ID NO: 18)). The effects of the peptides on NK cell inhibition were determined by measuring four markers of NK cell activation (CD107a, IFNG, TNF, CCL3) in NKG2A−/NKG2C+NK cells (FIGS. 2A-2D). Activation was indicated by an increase in percent cells positive for cell surface markers.
# NKG2A+/NKG2C− NK cells = assay: NK cell activation markers in NKG2A+/NKG2C- NK cells incubated with peptide and K562 expressing HLA-E (inhibition); assay type: cell-based, human; settings: for effect on NKG2A+/NKG2C− NK cell inhibition (in words): K562 expressing HLA-E, CD107a, IFNG, TNF, CCL3; for percentage of CCL3+ NK cells / percentage of CD107a+ NK cells / percentage of IFNG+ NK cells / percentage of TNF+ NK cells: NKG2A+/NKG2C- NK cells, K562/HLA-E
# Method in brief: as §1
# NKG2A−/NKG2C+ NK cells [2] = assay: NK cell activation markers in NKG2A-/NKG2C+ NK cells incubated with peptide and K562 expressing HLA-E (activation); assay type: cell-based, human; settings: for effect on NKG2A−/NKG2C+ NK cell activation (in words): K562 expressing HLA-E, CD107a, IFNG, TNF, CCL3; for percentage of CCL3+ NK cells / percentage of CD107+ NK cells / percentage of IFNG+ NK cells / percentage of TNF+ NK cells: NKG2A-/NKG2C+ NK cells, K562/HLA-E
# Method in brief: as §1
# HLA-E = target: T1, HLA-E (Homo sapiens, UniProt P13747); assay: HLA-E surface stabilization assay with RMA-S/HLA-E cells; assay type: cell-based; settings: 30 μM peptide, 16 hours; for HLA-E surface expression stability (GeoMFI): anti-HLA-E antibody
# T1 construct: expressed in transfected cells; host or cells: RMA-S/HLA-E cells (antigen processing-defective lymphoma cell line)
# Protocol: HLA-E surface expression was assessed by measuring geometric mean fluorescence intensity (GeoMFI) in RMA-S cells following immunofluorescence staining with an anti-HLA-E antibody (Table 14). Increased GeoMFI was indicative of increased HLA-E surface expression stability following novel peptide exposures (FIG. 3).
# T1 sequence (P13747 22-358): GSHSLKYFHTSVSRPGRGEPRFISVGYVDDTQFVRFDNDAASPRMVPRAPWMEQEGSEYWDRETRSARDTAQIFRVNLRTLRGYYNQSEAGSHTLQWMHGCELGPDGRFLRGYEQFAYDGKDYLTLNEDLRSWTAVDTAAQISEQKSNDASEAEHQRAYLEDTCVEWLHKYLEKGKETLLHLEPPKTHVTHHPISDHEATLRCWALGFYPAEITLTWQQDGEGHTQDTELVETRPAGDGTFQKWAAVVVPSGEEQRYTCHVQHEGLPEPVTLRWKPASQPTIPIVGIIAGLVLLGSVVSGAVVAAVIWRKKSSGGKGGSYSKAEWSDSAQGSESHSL
# T1 sequence (P61769 21-119 partner): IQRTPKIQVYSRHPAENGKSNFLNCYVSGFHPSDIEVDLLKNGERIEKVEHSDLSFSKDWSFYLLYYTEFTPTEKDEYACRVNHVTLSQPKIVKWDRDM
sequence,measurement,setting,value
"TAPARTMFL [human13, TAPARTMFL]",percentage CCL3+ NK cells,NKG2A−/NKG2C− NK cells; Trial 1,37.2%
same,percentage CD107+ NK cells,NKG2A−/NKG2C− NK cells; Trial 1,26.3%
same,percentage TNF+ NK cells,NKG2A−/NKG2C− NK cells; Trial 1,3.65%
same,percentage of IFNG+ NK cells,NKG2A−/NKG2C− NK cells; Trial 1,16.6%
same,percentage CCL3+ NK cells,NKG2A−/NKG2C− NK cells; Trial 2,65.4%
same,percentage CD107+ NK cells,NKG2A−/NKG2C− NK cells; Trial 2,43%
same,percentage TNF+ NK cells,NKG2A−/NKG2C− NK cells; Trial 2,11.9%
same,percentage of IFNG+ NK cells,NKG2A−/NKG2C− NK cells; Trial 2,32.5%
same,percentage CCL3+ NK cells,NKG2A−/NKG2C− NK cells; Trial 3,56.2%
same,percentage CD107+ NK cells,NKG2A−/NKG2C− NK cells; Trial 3,56.4%
same,percentage TNF+ NK cells,NKG2A−/NKG2C− NK cells; Trial 3,23.2%
same,percentage of IFNG+ NK cells,NKG2A−/NKG2C− NK cells; Trial 3,49.4%
same,percentage CCL3+ NK cells,NKG2A−/NKG2C− NK cells; Trial 4,37.7%
same,percentage CD107+ NK cells,NKG2A−/NKG2C− NK cells; Trial 4,31.8%
same,percentage TNF+ NK cells,NKG2A−/NKG2C− NK cells; Trial 4,12.1%
same,percentage of IFNG+ NK cells,NKG2A−/NKG2C− NK cells; Trial 4,22.2%
same,percentage CCL3+ NK cells,NKG2A−/NKG2C− NK cells; Trial 5,30.1%
same,percentage CD107+ NK cells,NKG2A−/NKG2C− NK cells; Trial 5,22.7%
same,percentage TNF+ NK cells,NKG2A−/NKG2C− NK cells; Trial 5,8.01%
same,percentage of IFNG+ NK cells,NKG2A−/NKG2C− NK cells; Trial 5,18.9%
same,percentage CCL3+ NK cells,NKG2A−/NKG2C− NK cells; Trial 6,27.4%
same,percentage CD107+ NK cells,NKG2A−/NKG2C− NK cells; Trial 6,21.1%
same,percentage TNF+ NK cells,NKG2A−/NKG2C− NK cells; Trial 6,3.64%
same,percentage of IFNG+ NK cells,NKG2A−/NKG2C− NK cells; Trial 6,8.06%
same,increase in CCL3+ NK cells (in words),NKG2A−/NKG2C+ NK cells [1],slight increases
same,increase in CD107a+ NK cells (in words),NKG2A−/NKG2C+ NK cells [1],slight increases
same,increase in IFNG+ NK cells (in words),NKG2A−/NKG2C+ NK cells [1],no increase
same,increase in TNF+ NK cells (in words),NKG2A−/NKG2C+ NK cells [1],no increase
same,effect on NKG2A+/NKG2C− NK cell inhibition (in words),NKG2A+/NKG2C− NK cells; listed as SEQ ID NO. 5,no or minimal effect
same,effect on NKG2A+/NKG2C− NK cell inhibition (in words),NKG2A+/NKG2C− NK cells; listed as h13,no effect
same,percentage of CCL3+ NK cells,NKG2A+/NKG2C− NK cells; Trial 1,52.5%
same,percentage of CD107a+ NK cells,NKG2A+/NKG2C− NK cells; Trial 1,31.2%
same,percentage of IFNG+ NK cells,NKG2A+/NKG2C− NK cells; Trial 1,13%
same,percentage of TNF+ NK cells,NKG2A+/NKG2C− NK cells; Trial 1,3.99%
same,percentage of CCL3+ NK cells,NKG2A+/NKG2C− NK cells; Trial 2,75.9%
same,percentage of CD107a+ NK cells,NKG2A+/NKG2C− NK cells; Trial 2,50.6%
same,percentage of IFNG+ NK cells,NKG2A+/NKG2C− NK cells; Trial 2,30.8%
same,percentage of TNF+ NK cells,NKG2A+/NKG2C− NK cells; Trial 2,13.8%
same,percentage of CCL3+ NK cells,NKG2A+/NKG2C− NK cells; Trial 3,52.6%
same,percentage of CD107a+ NK cells,NKG2A+/NKG2C− NK cells; Trial 3,44.4%
same,percentage of IFNG+ NK cells,NKG2A+/NKG2C− NK cells; Trial 3,31.7%
same,percentage of TNF+ NK cells,NKG2A+/NKG2C− NK cells; Trial 3,17%
same,percentage of CCL3+ NK cells,NKG2A+/NKG2C− NK cells; Trial 4,47.3%
same,percentage of CD107a+ NK cells,NKG2A+/NKG2C− NK cells; Trial 4,37.6%
same,percentage of IFNG+ NK cells,NKG2A+/NKG2C− NK cells; Trial 4,21.7%
same,percentage of TNF+ NK cells,NKG2A+/NKG2C− NK cells; Trial 4,12.6%
same,percentage of CCL3+ NK cells,NKG2A+/NKG2C− NK cells; Trial 5,48.9%
same,percentage of CD107a+ NK cells,NKG2A+/NKG2C− NK cells; Trial 5,32.2%
same,percentage of IFNG+ NK cells,NKG2A+/NKG2C− NK cells; Trial 5,16.9%
same,percentage of TNF+ NK cells,NKG2A+/NKG2C− NK cells; Trial 5,7.45%
same,percentage of CCL3+ NK cells,NKG2A+/NKG2C− NK cells; Trial 6,39.3%
same,percentage of CD107a+ NK cells,NKG2A+/NKG2C− NK cells; Trial 6,28.2%
same,percentage of IFNG+ NK cells,NKG2A+/NKG2C− NK cells; Trial 6,8.81%
same,percentage of TNF+ NK cells,NKG2A+/NKG2C− NK cells; Trial 6,5.68%
same,effect on NKG2A−/NKG2C+ NK cell activation (in words),NKG2A−/NKG2C+ NK cells [2]; listed as SEQ ID NO. 5,activate
same,effect on NKG2A−/NKG2C+ NK cell activation (in words),NKG2A−/NKG2C+ NK cells [2]; listed as h13,activated
same,percentage of CCL3+ NK cells,NKG2A−/NKG2C+ NK cells [2]; Trial 1,56.9%
same,percentage of CD107+ NK cells,NKG2A−/NKG2C+ NK cells [2]; Trial 1,38.3%
same,percentage of IFNG+ NK cells,NKG2A−/NKG2C+ NK cells [2]; Trial 1,18.2%
same,percentage of TNF+ NK cells,NKG2A−/NKG2C+ NK cells [2]; Trial 1,9.29%
same,percentage of CCL3+ NK cells,NKG2A−/NKG2C+ NK cells [2]; Trial 2,74.9%
same,percentage of CD107+ NK cells,NKG2A−/NKG2C+ NK cells [2]; Trial 2,57%
same,percentage of IFNG+ NK cells,NKG2A−/NKG2C+ NK cells [2]; Trial 2,28.7%
same,percentage of TNF+ NK cells,NKG2A−/NKG2C+ NK cells [2]; Trial 2,20.7%
same,percentage of CCL3+ NK cells,NKG2A−/NKG2C+ NK cells [2]; Trial 3,72.4%
same,percentage of CD107+ NK cells,NKG2A−/NKG2C+ NK cells [2]; Trial 3,71.2%
same,percentage of IFNG+ NK cells,NKG2A−/NKG2C+ NK cells [2]; Trial 3,49.2%
same,percentage of TNF+ NK cells,NKG2A−/NKG2C+ NK cells [2]; Trial 3,37.9%
same,percentage of CCL3+ NK cells,NKG2A−/NKG2C+ NK cells [2]; Trial 4,60.7%
same,percentage of CD107+ NK cells,NKG2A−/NKG2C+ NK cells [2]; Trial 4,57.1%
same,percentage of IFNG+ NK cells,NKG2A−/NKG2C+ NK cells [2]; Trial 4,40.8%
same,percentage of TNF+ NK cells,NKG2A−/NKG2C+ NK cells [2]; Trial 4,33%
same,percentage of CCL3+ NK cells,NKG2A−/NKG2C+ NK cells [2]; Trial 5,61.9%
same,percentage of CD107+ NK cells,NKG2A−/NKG2C+ NK cells [2]; Trial 5,56.2%
same,percentage of IFNG+ NK cells,NKG2A−/NKG2C+ NK cells [2]; Trial 5,34.2%
same,percentage of TNF+ NK cells,NKG2A−/NKG2C+ NK cells [2]; Trial 5,27.4%
same,percentage of CCL3+ NK cells,NKG2A−/NKG2C+ NK cells [2]; Trial 6,40.7%
same,percentage of CD107+ NK cells,NKG2A−/NKG2C+ NK cells [2]; Trial 6,29.1%
same,percentage of IFNG+ NK cells,NKG2A−/NKG2C+ NK cells [2]; Trial 6,14.3%
same,percentage of TNF+ NK cells,NKG2A−/NKG2C+ NK cells [2]; Trial 6,8.92%
same,HLA-E surface expression stabilization strength (in words),HLA-E,lower
same,HLA-E surface expression stability (GeoMFI),HLA-E; Trial 1,851 GeoMFI
same,HLA-E surface expression stability (GeoMFI),HLA-E; Trial 2,887 GeoMFI
same,HLA-E surface expression stability (GeoMFI),HLA-E; Trial 3,673 GeoMFI
same,HLA-E surface expression stability (GeoMFI),HLA-E; Trial 4,1187 GeoMFI
same,"HLA-E surface expression stabilization strength, approximate GeoMFI",HLA-E; approximate value,approximately 1×10^3 GeoMFI
